According to paper PMC6159918 (Peptides, 2018):
Where two headings read alike, the source gives them in different places. One block for each molecule: values may come before it.

What was measured:
NMBR [1] = biological target: NMBR (Homo sapiens, UniProt P28336); experiment: [3H]IP production, NMBR agonist/antagonist; assay type: cell-based; settings: Peptide #1 (10 nM) + PD 1 μM; NCI-H727 (carcinoid); control 143 ± 21
NMBR [2] = experiment: [3H]IP production, NMBR agonist/antagonist; assay type: cell-based, human
GRPR = assay type: cell-based, human
human BRS-3-receptor [3] = biological target: T1, human BRS-3-receptor (Homo sapiens, UniProt P32247); experiment: [3H]-inositol phosphates; assay type: cell-based; settings: for decrease in [3H]IP-production stimulated by MK-5046 / inhibition of [3H]IP-production caused by peptide #1: Bantag-1 100 nM; for decrease in [3H]IP-production stimulated by MK-5046: MK-5046 10 nM; for inhibition of [3H]IP-production caused by peptide #1: peptide #1 10 nM
T1 sequence (P32247 1-399): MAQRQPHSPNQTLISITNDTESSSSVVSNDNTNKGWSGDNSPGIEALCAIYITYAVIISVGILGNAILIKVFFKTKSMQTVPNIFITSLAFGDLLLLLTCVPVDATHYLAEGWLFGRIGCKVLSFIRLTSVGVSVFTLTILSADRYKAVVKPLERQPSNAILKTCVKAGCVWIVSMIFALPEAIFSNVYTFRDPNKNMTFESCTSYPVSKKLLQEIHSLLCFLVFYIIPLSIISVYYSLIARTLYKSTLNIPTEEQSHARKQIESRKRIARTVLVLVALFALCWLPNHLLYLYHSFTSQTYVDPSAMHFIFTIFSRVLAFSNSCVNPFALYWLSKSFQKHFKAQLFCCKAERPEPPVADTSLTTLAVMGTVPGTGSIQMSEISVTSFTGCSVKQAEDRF

human BRS-3-receptor [4] = biological target: T1, human BRS-3-receptor; experiment: Cytosolic Ca2+; assay type: cell-based

NMBR (Homo sapiens, UniProt P28336), sequence (P28336 whole entry): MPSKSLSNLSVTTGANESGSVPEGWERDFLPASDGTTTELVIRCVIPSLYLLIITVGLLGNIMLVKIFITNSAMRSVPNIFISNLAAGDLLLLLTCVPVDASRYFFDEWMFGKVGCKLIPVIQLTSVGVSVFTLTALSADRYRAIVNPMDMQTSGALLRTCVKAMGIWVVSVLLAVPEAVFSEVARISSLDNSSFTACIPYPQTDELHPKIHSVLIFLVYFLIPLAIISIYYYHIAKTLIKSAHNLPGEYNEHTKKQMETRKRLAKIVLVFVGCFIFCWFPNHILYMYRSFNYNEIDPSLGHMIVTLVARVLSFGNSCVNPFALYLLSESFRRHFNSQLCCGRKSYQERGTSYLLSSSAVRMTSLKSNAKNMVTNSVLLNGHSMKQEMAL

Molecule: C[C@@](Cc1c[nH]c2ccccc12)(NC(=O)Nc1ccc([N+](=O)[O-])cc1)C(=O)NCC1(c2ccccn2)CCCCC1 [PD168368]
[3H]IP (DPM) (NMBR [1]): 157 ± 48 DPM
[3H]IP (DPM) (NMBR [2]; Peptide #1 (10 nM) + PD 1 μM, Balb-3T3 BRS-3 transfected, control 2487 ± 185): 15006 ± 769 DPM
[3H]IP (DPM) (NMBR [2]; Peptide #1 (10 nM) + PD 1 μM, NCI-H69 (SCLC), control 177 ± 27): 471 ± 121 DPM
[3H]IP (DPM) (NMBR [2]; Peptide #1 (10 nM) + PD 1 μM, NCI-N417 (SCLC), control 660 ± 87): 2176 ± 518 DPM

Molecule: gastrin-releasing peptide [GRP]
[3H]IP (DPM) (GRPR; GRP 100 nM, Balb-3T3 BRS-3 transfected, control 2487 ± 185): 2519 ± 744 DPM
[3H]IP (DPM) (GRPR; GRP 100 nM, NCI-N417 (SCLC), control 660 ± 87): 881 ± 204 DPM
[3H]IP (DPM) (GRPR; GRP 1 μM, NCI-N417 (SCLC), control 660 ± 87): 724 ± 138 DPM
PLC activation in 4 cell-lines (NCI-H69, NCI-N417, NCI-H727, BRS-3/Balb) (GRPR; GRP at 10 nM and 100 nM): activated PLC only in NCI-H727-cells

Molecule: neuromedin B [NMB]
[3H]IP (DPM) (NMBR [2]; NMB 100 nM, Balb-3T3 BRS-3 transfected, control 2487 ± 185): 2697 ± 720 DPM
[3H]IP (DPM) (NMBR [2]; NMB 100 nM, NCI-H69 (SCLC), control 177 ± 27): 186 ± 20 DPM
[3H]IP (DPM) (NMBR [2]; NMB 100 nM, NCI-N417 (SCLC), control 660 ± 87): 706 ± 132 DPM
[3H]IP (DPM) (NMBR [2]; NMB 1 μM, Balb-3T3 BRS-3 transfected, control 2487 ± 185): 2652 ± 838 DPM
[3H]IP (DPM) (NMBR [2]; NMB 1 μM, NCI-H69 (SCLC), control 177 ± 27): 187 ± 37 DPM
[3H]IP (DPM) (NMBR [2]; NMB 1 μM, NCI-N417 (SCLC), control 660 ± 87): 707 ± 137 DPM
PLC activation in 4 cell-lines (NCI-H69, NCI-N417, NCI-H727, BRS-3/Balb) (NMBR [2]; NMB at 10 nM and 100 nM): activated PLC only in NCI-H727-cells

[3H]IP (DPM) (human BRS-3-receptor [3]; Peptide #1 10 nM, Balb-3T3 BRS-3 transfected, control 2487 ± 185): 16341 ± 1071 DPM
[3H]IP (DPM) (human BRS-3-receptor [3]; Peptide #1 10 nM, NCI-H69 (SCLC), control 177 ± 27): 680 ± 73 DPM
[3H]IP (DPM) (human BRS-3-receptor [3]; Peptide #1 10 nM, NCI-N417 (SCLC), control 660 ± 87): 2131 ± 244 DPM
Molecule: [D-Tyr^6, β-Ala^11, Phe^13, Nle^14]Bn- (6–14) [Peptide #1]
[3H]IP (DPM) (human BRS-3-receptor [3]; Peptide #1 10 nM, NCI-H727 (carcinoid), control 143 ± 21): 235 ± 25 DPM

Molecule: Boc-Phe-His-4-amino-5-cyclohexyl-2, 4, 5-trideoxypentonyl-Leu- (3-dimethylamino)benzyl amide-N-methyl ammonium trifluoroacetate [Bantag-1]
decrease in [3H]IP-production stimulated by MK-5046 (human BRS-3-receptor [3]; BRS-3/Balb-cells): 93%
decrease in [3H]IP-production stimulated by MK-5046 (human BRS-3-receptor [3]; NCI-H69): 81%
decrease in [3H]IP-production stimulated by MK-5046 (human BRS-3-receptor [3]; NCI-H727): 75%
decrease in [3H]IP-production stimulated by MK-5046 (human BRS-3-receptor [3]; NCI-N417): 99%
inhibition of [3H]IP-production caused by peptide #1 (human BRS-3-receptor [3]; BRS-3/Balb-cells): 82%
inhibition of [3H]IP-production caused by peptide #1 (human BRS-3-receptor [3]; NCI-H69-cells): 83%
inhibition of [3H]IP-production caused by peptide #1 (human BRS-3-receptor [3]; NCI-N417-cells): 68%
[3H]IP (DPM) (human BRS-3-receptor [3]; MK-5046 10 nM + Bantag 100 nM, Balb-3T3 BRS-3 transfected, control 2487 ± 185): 3697 ± 1064 DPM
[3H]IP (DPM) (human BRS-3-receptor [3]; MK-5046 10 nM + Bantag 100 nM, NCI-H69 (SCLC), control 177 ± 27): 256 ± 56 DPM
[3H]IP (DPM) (human BRS-3-receptor [3]; MK-5046 10 nM + Bantag 100 nM, NCI-H727 (carcinoid), control 143 ± 21): 215 ± 25 DPM
[3H]IP (DPM) (human BRS-3-receptor [3]; MK-5046 10 nM + Bantag 100 nM, NCI-N417 (SCLC), control 660 ± 87): 678 ± 82 DPM
[3H]IP (DPM) (human BRS-3-receptor [3]; Peptide #1 (10 nM) + Bantag 100 nM, NCI-H69 (SCLC), control 177 ± 27): 265 ± 35 DPM
[3H]IP (DPM) (human BRS-3-receptor [3]; Peptide #1 (10 nM) + Bantag 100 nM, NCI-H727 (carcinoid), control 143 ± 21): 176 ± 27 DPM
[3H]IP (DPM) (human BRS-3-receptor [3]; Peptide #1 (10 nM) + Bantag 100 nM, NCI-N417 (SCLC), control 660 ± 87): 1125 ± 154 DPM
inhibition of MK-5046 stimulated increases in cytosolic calcium (human BRS-3-receptor [4]; Bantag-1 1000 nM, two cell lines (NCI-H727, H782)): completely inhibited
inhibition of MK-5046 stimulation of increases in (Ca2+)i (human BRS-3-receptor [4]; NCI-82, NCI-H460 and NCI-H727 cells): inhibited

Molecule: [D-Phe^6]Bombesin-(6–13)-methyl ester
[3H]IP (DPM) (GRPR; Peptide #1 (10 nM) + ME 1 μM, Balb-3T3 BRS-3 transfected, control 2487 ± 185): 16107 ± 100 DPM
[3H]IP (DPM) (GRPR; Peptide #1 (10 nM) + ME 1 μM, NCI-N417 (SCLC), control 660 ± 87): 2513 ± 662 DPM
